Tests used:
[1] = Retention of idarubicin in liposomes with varying internal citrate after intravenous injection; type: in vivo, Balb/c mice; details: DSPC/DSPE-PEG2000 (95:5) liposomes; 300 mM citrate (>500 mOsm/kg) in relation to 100 and 150 mM (<500 mOsm/kg); i.v., 0.5-24 h
Protocol: DSPC/DSPE-PEG2000 (95:5 mole ratio) liposomes prepared with 100, 150 and 300 mM citrate were also loaded with idarubicin at a drug to lipid mole ratio of 0.25:1. Loading was facilitated by incubating the drug and liposomes at 37° C. for 60 minutes. Liposomes were administered to Balb/c mice as indicated and blood samples were removed by cardiac puncture at 0.5, 1, 2, 4 and 24-hours post administration (3 mice per time point). Idarubicin concentration was quantitated using fluorescence intensity at 485 nm as the excitation wavelength and 535 nm as an emission wavelength and using an absorbance wavelength of 482 nm.

[2] = Retention of FUDR in DSPC/DSPG/Chol liposomes in blood after intravenous injection; type: in vivo, Balb/c mice; details: DSPC/DSPG/Chol (70:20:10) liposomes; intraliposomal solution of less than 500 mOsm/kg; i.v., 1, 4, 24 h
Protocol: DSPC/DSPG/Chol (70:20:10 mole ratio) were prepared following the methods of Example 1 except that lipid films were hydrated in either saline or Cu(II)gluconate, pH 7.4 containing 25 mg/mL FUDR at 70° C. Cu(II)gluconate was added at either 100 or 200 mM (321 and 676 mOsm/kg, respectively) and the pH was adjusted to 7.4 by addition of triethanolamine (TEA). Trace amounts of 14C-CHE and ^3H-FUDR were used as lipid and drug markers, respectively. The resulting MLVs were extruded at 75° C. through two stacked 100 nm pore size filters for a total of ten passes. Liposomes were buffer exchanged into HBS, pH 7.4 using a hand-held tangential flow column. A total lipid dose of 3.3 μmoles (165 μmoles/kg) was administered to female Balb/c mice in a final volume of 200 μL immediately after preparation (within 1-2 hrs). Blood samples were removed by cardiac puncture 1, 4 and 24-hours post administration (3 mice per time point). Lipid and FUDR levels were determined using liquid scintillation counting and values were reported as the mean±SD.

[3] = Retention of vincristine in liposomes in blood after intravenous injection; type: in vivo, Balb/c mice; details: i.v., 1, 4, 24 h
Protocol: Solutions of lipids in chloroform were combined to give a 95:5 molar ratio of DSPC/DSPE-PEG2000 or a 55:45 molar ratio of DSPC/Cholesterol, with trace amounts of ^14C-cholesteryl hexadecyl ether (^14C-CHE). The resulting mixtures were dried under a stream of nitrogen gas and placed in a vacuum pump overnight. The samples were hydrated at 70° C. with either 300 mM citrate, pH 4.0 (about 600 milliosmoles/kg (mOsm/kg)) or 150 mM citrate buffer, pH 4.0 (about 300 mOsm/kg) and passed through an extrusion apparatus (Northern Lipids Inc., Vancouver, BC) ten times with two 100 nm pore size polycarbonate filters at 70° C. Average liposome size was determined by quasi-elastic light scattering using a NICOMP 370 submicron particle sizer operating at a wavelength of 632.8 nm. The resulting liposomes were applied to a Sephadex G50 column equilibrated with HBS (20 mM HEPES, 150 mM NaCl, about 320 mOsm/kg), pH 7.45 to exchange the external liposomal buffer. […]
Vincristine-containing liposomes were administered intravenously to Balb/c mice at a lipid dose of 165 μmoles/kg in a final volume of 200 μL immediately after preparation (within 1-2 hrs). […] Lipid and vincristine levels were quantified by liquid scintillation counting and the values were reported as the mean ± standard deviation (SD).

[4] = Retention of daunorubicin in liposomes in blood after intravenous injection (time course); type: in vivo, Balb/c mice; details: DSPC/DSPE-PEG2000 (95:5) liposomes; internal citrate 600 mOsm/kg (300 mM) in relation to 300 mOsm/kg (150 mM); i.v., 1, 4, 24 h
Protocol: DSPC/DSPE-PEG2000 liposomes (95:5 mole ratio) containing 150 or 300 mM citrate (300 or 600 mOsm/kg), pH 4 and DSPC/Cholesterol (55:45 mole ratio) and DSPC/Cholesterol/DSPE-PEG2000 (50:45:5 mole ratio) liposomes containing 150 mM citrate, pH 4 were prepared as described in Example 1. Liposomes were subsequently combined with daunorubicin at a 0.2:1 drug to lipid mole ratio. To facilitate drug loading, the mixtures were incubated at 40° C. for 60 minutes.
The resulting daunorubicin-containing liposomes were administered to Balb/c female mice at a lipid dose of 165 μmoles/kg as detailed above. Blood samples were removed at 1, 4 and 24 hours post administration by cardiac puncture (3 mice per time point). Lipid levels were determined by liquid scintillation counting. Daunorubicin was extracted from plasma samples and quantified as follows: a defined volume of plasma was adjusted to 200 μL with distilled water followed by addition of 600 μL of distilled water, 100 μL of 10% SDS and 100 μL of 10 mM H2SO4. This solution was mixed and 2 mLs of 1:1 isopropanol/chloroform was added followed by vortexing. […] The bottom organic layer was removed and assayed for fluorescence intensity at 500 nm as the excitation wavelength (2.5 nm bandpass) and 550 nm as an emission wavelength (10 nm bandpass) and using an absorbance wavelength of 480 nm.

[5] = Retention of daunorubicin in liposomes with varying internal citrate, 4 hours after injection; type: in vivo, Balb/c mice; details: DSPC/DSPE-PEG2000 (95:5) liposomes; 100, 150 and 200 mM internal citrate (about 200, 300, 400 mOsm/kg); 4 hours after i.v. injection
Protocol: DSPC/DSPE-PEG2000 (95:5 mole ratio) liposomes containing the non-exchangeable marker 3H-CHE were prepared as described in Example 1, except that lipid films were hydrated with 100, 150, 200, 250 or 300 mM citrate, pH 4.0 (corresponding to osmolarity levels of about 200, 300, 400, 500 or 600 mOsm/kg, respectively).
Daunorubicin was loaded at a 0.2:1 drug-to-lipid mole ratio with the methods detailed above into each of the five liposomal formulations. The resulting liposomes were administered to female Balb/c mice at a lipid dose of 165 μmoles/kg in a final volume of 200 μL immediately after preparation (within 1-2 hrs). Blood samples were removed 4 hours after administration by cardiac puncture (3 mice per time point). Lipid and daunorubicin levels were determined as described previously and percent initial drug-to-lipid ratio was reported as the mean±SD.

[6] = Drug-to-lipid ratio of irinotecan before and after freezing of dual-loaded DSPC/DSPG liposomes; type: physicochemical; details: 0-20 mole % cholesterol, with FUDR, 250 mM CuSO4 inside (<500 mOsm/kg), frozen at -20° C. and -70° C. for 24 hours
Protocol: FUDR and irinotecan were loaded into cholesterol-free liposomes containing a low osmolarity internal solution and drug retention and liposome size were measured prior to and after freezing. DSPC/DSPG liposomes containing 0-20 mole % cholesterol, 20 mole % DSPG and passively entrapped FUDR were prepared as described previously and hydrated in 250 mM CuSO4 (<500 mOsm/kg). The MLVs were extruded at 70° C. as detailed above and buffered exchanged into saline and then into 300 mM sucrose, 20 mM Hepes, 30 mM EDTA (SHE), pH 7.4 using a hand-held tangential flow column. The sample was then further exchanged into 300 mM sucrose, 20 mM Hepes, pH 7.4 to remove residual EDTA. The liposomes were subsequently loaded with irinotecan at a drug-to-lipid mole ratio of 0.1:1 by mixing the two solutions at 50° C. for five minutes. The dual-loaded liposomes were then buffered exchanged into HBS using tangential flow to remove any unencapsulated drug.
The influence of freezing on liposome stability was determined by freezing the liposomes at either −20° C. or −70° C. for 24 hours. […] Lipid and FUDR levels were quantified using liquid scintillation and absorbance at 370 nm was used to determine irinotecan concentration. Particle sizing of the liposomes was also determined prior to and after freezing using quasi-elastic light scattering.

Which “idarubicin retention (idarubicin-to-lipid mole ratio in the blood)” value [1] does the source give for `CC(=O)[C@]1(O)Cc2c(O)c3c(c(O)c2[C@@H](O[C@H]2C[C@H](N)[C@H](O)[C@H](C)O2)C1)C(=O)c1ccccc1C3=O` [idarubicin] here?
Its value is “significantly decreased”.

Which “FUDR retention (FUDR levels remaining in the blood)” value [2] does the source give for `O=c1[nH]c(=O)n([C@H]2C[C@H](O)[C@@H](CO)O2)cc1F` [FUDR, Floxuridine] here?
The value was “optimally retained”.

Which “retention of vincristine (percent initial vincristine-to-lipid weight ratio in the blood)” value ([3]; DSPC/DSPE-PEG2000 (95:5 mole ratio) liposomes, internal citrate 300 mOsm/kg (150 mM) compared to 600 mOsm/kg (300 mM)) does the source give for `CC[C@]1(O)C[C@H]2CN(CCc3c([nH]c4ccccc34)[C@@](C(=O)OC)(c3cc4c(cc3OC)N(C=O)[C@H]3[C@@](O)(C(=O)OC)[C@H](OC(C)=O)[C@]5(CC)C=CCN6CC[C@]43[C@@H]65)C2)C1` [vincristine] here?
Its value is “significantly enhanced”.

And the “retention of vincristine (percent initial vincristine-to-lipid weight ratio in the blood)” value ([3]; DSPC/cholesterol (55:45 mole ratio) liposomes, 150 mM vs 300 mM internal citrate)?
Its value is “independent of the osmolarity of the intraliposomal solution”.

With `COc1cccc2c1C(=O)c1c(O)c3c(c(O)c1C2=O)C[C@@](O)(C(C)=O)C[C@@H]3O[C@H]1C[C@H](N)[C@H](O)[C@H](C)O1` [daunorubicin] as the compound, how does the “daunorubicin retention (percent initial daunorubicin-to-lipid ratio remaining in the blood)” value [4] read?
Its value is “compromised”.

What about the “retention of daunorubicin (percent initial daunorubicin-to-lipid ratio remaining in the blood)” value [5] of the same compound?
Its value is “optimal retention”.

With `CCc1c2c(nc3ccc(OC(=O)N4CCC(N5CCCCC5)CC4)cc13)-c1cc3c(c(=O)n1C2)COC(=O)[C@]3(O)CC` [irinotecan] as the compound, how does the “retention of irinotecan after freezing (drug-to-lipid ratio)” value [6] read?
The value was “effectively retained”.

From patent publication US20050118249A1, “Lipid carrier compositions and methods for improved drug retention” (priority 2001, published 2005)
